Laboratory results taken from US20230044268A1, “AN IMPROVED PROCESS FOR PREPARATION OF LIRAGLUTIDE” (SHILPA MEDICARE LIMITED, priority 2019, published 2023).

Assay: storage stability of liraglutide obtained by the present process
Assay type: physicochemical
Details: storage of the isolated product; conditions not given
Source text: The present invention also relates to a process for the preparation of liraglutide, which is substantially pure having a purity of greater or equal to 99.5% and meeting the ICH guidelines. Further, the liraglutide obtained as per the present process is found devoid of any other process related impurities and is adequately stable to handle and store for longer time (at least up to more than 6 months) without any significant or measurable change in its morphology and physicochemical characteristics.

## Liraglutide
  stable to handle and store without any significant or measurable change in morphology and physicochemical characteristics: more than 6 months
